The test system of data set [1] is HT-29. Kind of data set: Cytotoxicity against human HT29 cells assessed as reduction in cell viability up to 1 mM incubated for 24 hrs by resazurin-dye based alamar blue assay. As to conditions: ht-29, 24 h. On the technique in general: The colour change of resazurin is a common sign of viable cells or microbes.
The target in data set [2] is Protein arginine N-methyltransferase 1 (Homo sapiens) (UniProt Q99873). Kind of data set: Inhibition of PRMT1 (unknown origin) at 100 uM using H4-21 peptide as substrate preincubated for 10 mins in presence of SAM followed by substrate addition by SAHH-coupled fluorescence assay relative to control.
Sequence of Protein arginine N-methyltransferase 1 (Homo sapiens) (Q99873 whole entry, looked up): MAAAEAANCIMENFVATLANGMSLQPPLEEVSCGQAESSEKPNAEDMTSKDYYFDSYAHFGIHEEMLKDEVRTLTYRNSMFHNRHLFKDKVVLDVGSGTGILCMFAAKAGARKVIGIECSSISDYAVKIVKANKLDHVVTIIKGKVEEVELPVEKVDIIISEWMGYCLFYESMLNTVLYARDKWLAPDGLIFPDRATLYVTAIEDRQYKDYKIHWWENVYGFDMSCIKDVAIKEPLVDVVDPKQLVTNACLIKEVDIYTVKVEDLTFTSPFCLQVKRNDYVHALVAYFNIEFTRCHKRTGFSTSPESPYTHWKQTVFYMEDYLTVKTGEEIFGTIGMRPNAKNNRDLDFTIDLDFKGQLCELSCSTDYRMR
Data set [3] addresses T1, N-terminal Xaa-Pro-Lys N-methyltransferase 1 (Homo sapiens) (UniProt Q9BV86).
T1 sequence (whole entry): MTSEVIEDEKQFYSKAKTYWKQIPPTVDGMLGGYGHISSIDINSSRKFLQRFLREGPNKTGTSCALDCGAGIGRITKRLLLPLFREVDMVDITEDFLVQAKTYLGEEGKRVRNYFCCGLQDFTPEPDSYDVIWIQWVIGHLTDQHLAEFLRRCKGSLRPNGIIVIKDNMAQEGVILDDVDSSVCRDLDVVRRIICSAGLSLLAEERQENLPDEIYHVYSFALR
Kind of data set: Inhibition of NTMT1 in human HCT116 cells assessed as decrease in me3-SPK level at 1 mM incubated for 3 days by Western blot analysis relative to control. It is filed as cell-based. The conditions noted are these: HCT-116, time 3.0 day.

The species entered for a further data set is Homo sapiens. Kind of data set: Selectivity for recombinant human N-terminal His6-tagged NTMT1 (1 to 222 residues) expressed in Escherichia coli BL21-CodonPlus(DE3)-RIL over PRMT1 (unknown origin).
Data set [4] addresses T2, Histone-lysine N-methyltransferase EHMT2 (Homo sapiens) (UniProt Q96KQ7).
T2 sequence (whole entry): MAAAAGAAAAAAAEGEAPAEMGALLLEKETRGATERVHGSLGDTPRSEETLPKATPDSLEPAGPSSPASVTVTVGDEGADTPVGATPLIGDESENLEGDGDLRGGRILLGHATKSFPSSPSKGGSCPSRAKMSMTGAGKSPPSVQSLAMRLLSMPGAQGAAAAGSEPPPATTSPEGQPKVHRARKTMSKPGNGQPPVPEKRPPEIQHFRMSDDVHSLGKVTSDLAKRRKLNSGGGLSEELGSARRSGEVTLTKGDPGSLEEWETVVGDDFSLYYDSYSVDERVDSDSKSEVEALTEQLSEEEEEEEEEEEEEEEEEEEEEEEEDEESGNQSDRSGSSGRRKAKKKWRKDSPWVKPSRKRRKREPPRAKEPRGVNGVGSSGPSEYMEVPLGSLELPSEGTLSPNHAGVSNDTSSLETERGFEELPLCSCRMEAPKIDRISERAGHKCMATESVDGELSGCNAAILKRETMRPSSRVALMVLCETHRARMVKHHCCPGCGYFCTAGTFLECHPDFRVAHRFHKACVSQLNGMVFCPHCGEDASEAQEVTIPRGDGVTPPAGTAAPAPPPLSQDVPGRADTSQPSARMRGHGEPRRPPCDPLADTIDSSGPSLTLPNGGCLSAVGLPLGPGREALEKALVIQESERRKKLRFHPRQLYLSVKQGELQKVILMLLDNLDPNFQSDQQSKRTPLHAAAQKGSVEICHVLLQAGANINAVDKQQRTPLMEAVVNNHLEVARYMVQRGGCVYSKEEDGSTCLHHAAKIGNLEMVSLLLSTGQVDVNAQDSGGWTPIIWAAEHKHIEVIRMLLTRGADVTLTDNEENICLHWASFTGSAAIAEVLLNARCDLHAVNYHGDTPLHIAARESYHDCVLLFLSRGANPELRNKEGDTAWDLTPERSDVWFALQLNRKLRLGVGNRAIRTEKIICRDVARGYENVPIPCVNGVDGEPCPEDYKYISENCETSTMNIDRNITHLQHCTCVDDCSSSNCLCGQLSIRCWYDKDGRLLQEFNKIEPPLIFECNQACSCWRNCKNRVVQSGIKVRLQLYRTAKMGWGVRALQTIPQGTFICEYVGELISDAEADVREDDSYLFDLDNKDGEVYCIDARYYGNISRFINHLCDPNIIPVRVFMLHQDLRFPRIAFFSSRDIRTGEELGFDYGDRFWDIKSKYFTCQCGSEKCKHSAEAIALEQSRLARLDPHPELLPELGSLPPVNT
Kind of data set: Inhibition of human His-tagged G9a (913 to 1193 residues) expressed in Escherichia coli BL21-CodonPlus(DE3)-RIL at 100 uM using H3-21 peptide as substrate preincubated for 10 mins in presence of SAM followed by substrate addition by SAHH-coupled fluorescence assay relative to control.

Data set [5] deals with HT-29. Kind of data set: Cytotoxicity against human HT29 cells assessed as reduction in cell viability up to 1 mM incubated for 72 hrs by resazurin-dye based alamar blue assay. As to conditions: ht-29, 72 h.
In data set [6] the target is T3, Histone-lysine N-methyltransferase SETD7 (Homo sapiens) (UniProt Q8WTS6).
T3 sequence (whole entry): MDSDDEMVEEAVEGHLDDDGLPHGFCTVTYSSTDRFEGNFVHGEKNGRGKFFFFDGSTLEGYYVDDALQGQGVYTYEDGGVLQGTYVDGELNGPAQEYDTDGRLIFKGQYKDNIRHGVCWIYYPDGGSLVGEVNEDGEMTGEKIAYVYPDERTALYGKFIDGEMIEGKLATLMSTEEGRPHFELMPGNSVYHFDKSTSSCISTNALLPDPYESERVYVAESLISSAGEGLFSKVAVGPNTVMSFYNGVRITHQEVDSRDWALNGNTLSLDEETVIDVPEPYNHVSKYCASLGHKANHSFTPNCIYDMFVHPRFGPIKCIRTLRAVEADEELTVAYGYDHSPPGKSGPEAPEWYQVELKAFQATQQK
Kind of data set: Inhibition of His-tagged SETD7 (unknown origin) at 100 uM using H3-21 peptide as substrate preincubated for 10 mins in presence of SAM followed by substrate addition by SAHH-coupled fluorescence assay relative to control.

Data set [7] concerns the target T1, N-terminal Xaa-Pro-Lys N-methyltransferase 1 (Homo sapiens). Kind of data set: Inhibition of NTMT1 in human HT29 cells assessed as decrease in me3-RCC1 level at 100 uM incubated for 3 days by Western blot analysis. As to conditions: HT-29, time 3.0 day. Type of data set: cell-based. A general note: A western blot detects proteins with antibodies after separation by electrophoresis.

Structures are written as SMILES. The source made the active and inactive calls. No cut-off for these calls is given here.

For one compound, Activity, inhibition and Selectivity ratio results are on record in ChEMBL document CHEMBL4680379, “Structure-based Discovery of Cell-Potent Peptidomimetic Inhibitors for Protein N-Terminal Methyltransferase 1” (ACS Med Chem Lett, 2021).

Consider `NCCCC[C@H](NC(=O)[C@@H]1CCCN1C(=O)Cc1cccc2ccccc12)C(=O)Nc1ccccc1C(N)=O`, for which the Activity entry in the data set on HT-29 [1] and with HT-29 [5] was “Non-Toxic” in each case. In addition, the inhibition (commonly the share of the control response that was lost under treatment) was less than 50% in data set [2], 100% in data set [3], less than 50% in data set [4] and less than 50% in data set [6]. For the same compound, the Selectivity ratio in the data set listed under Homo sapiens was greater than 300. In data set [7], the inhibition entry was “Active”.
